Laboratory results: US20260356834A1, “ANTICONVULSIVE COMPOUNDS AND USES THEREOF” (Jazz Pharmaceuticals Research UK Limite, priority 2023, published 2026)

The compounds below were run on C57BL/6J mice (assay: mouse maximal electroshock seizure threshold model using minimal sample sizes (mini-MEST)). Settings: 25 mg/kg p.o., 30 min post dose.
Method: An increase in seizure threshold is indicative of an anticonvulsive effect.
The ability of a test compound to alter the stimulus intensity, expressed as current (mA), required to induce the presence of tonic hind limb extensor convulsions, is assessed in the MEST.
In the mini-MEST test, a lower n number is used.
Male C57BL/6J mice were housed in groups of 6. Mice were kept under standard conditions (12 hour light cycle; light intensity of 25-75 lux) and fed a diet of certified rodent CR 14% protein rodent diet (LabDiet® 4CR4). Mice were 8-9 weeks old at the start of the study.
Naïve mice were acclimatised to the procedure room in their home cages for up to 7 days, with food and water available ad libitum.
All animals were weighed at the beginning of the study and randomly assigned to treatment groups based on a mean distribution of body weight across groups.
The first animal within a treatment group was given a shock at the expected or estimated CC50 current. For subsequent animals, the current was lowered or raised depending on the convulsions outcome from the preceding animal in log scale intervals.
Data generated from each treatment group were used to calculate the CC50±SEM values for the treatment group.
Vehicle: (5% ethanol, 10% Solutol® (Kolliphor® HS 15), 85% saline). 1 mL of ethanol, 2 mL of Solutol™ were warmed to 60 °C, in 17 mL of 0.9% saline.
Test compounds: 5-50 mg/kg in a 1:2:17 ethanol:Solutol®:saline formulation (as used for vehicle).

| SMILES | CC50 +/− SEM | Change from vehicle (CC50) |
| --- | --- | --- |
| Cc1c(F)cn2ccnc2c1-c1c(O)cc(CCC(F)(F)F)cc1O [Compound 24, 2-(6-Fluoro-7-methylimidazo[1,2-a]pyridin-8-yl)-5-(3,3,3-trifluoropropyl)benzene-1,3-diol] | 92.9 ± 1.1 mA | 272% |

Same assay, conditions: 30 mg/kg i.p., 30 min post dose

| SMILES | CC50 +/− SEM | Change from vehicle (CC50) |
| --- | --- | --- |
| CCCc1cc(O)c(-c2c(C(F)(F)F)ccn3ccnc23)c(O)c1 [Compound 5, 2-(7-trifluoromethylimidazo[1,2-a]pyridin-8-yl)-5-propylbenzene-1,3-diol] | <33.0 mA | <12% |
| CCCc1cc(O)c(-c2c(C)ccn3cc(Cl)nc23)c(O)c1 [Compound 12, 2-(2-Chloro-7-methylimidazo[1,2-a]pyridin-8-yl)-5-propylbenzene-1,3-diol] | 57.3 ± 1.9 mA | 145% |
| CCCCCc1cc(O)c(-c2c(C)ccn3ccnc23)c(O)c1 [Compound 13, 2-(7-Methylimidazo[1,2-a]pyridin-8-yl)-5-pentylbenzene-1,3-diol] | 92.9 ± 1.1 mA | 263% |
| CCC(C)(C)c1cc(O)c(-c2c(C)ccn3ccnc23)c(O)c1 [Compound 21, 2-(7-Methylimidazo[1,2-a]pyridin-8-yl)-5-(tert-pentyl)benzene-1,3-diol] | <33.0 mA | – |
| CCCc1cc(O)c(-c2c(C3CC3)ccn3ccnc23)c(O)c1 [Compound 18, 2-(7-Cyclopropylimidazo[1,2-a]pyridin-8-yl)-5-propylbenzene-1,3-diol] | 80.9 ± 1.1 mA | 216% |
| CCCc1cc(O)c(-c2cccn3ccnc23)c(O)c1 [Compound 1, 2-(imidazo[1,2-a]pyridin-8-yl)-5-propylbenzene-1,3-diol] | 92.9 ± 1.1 mA | 200% |
| CCCc1cc(O)c(-c2c(F)ccn3ccnc23)c(O)c1 [Compound 8, 2-(7-Fluoroimidazo[1,2-a]pyridin-8-yl)-5-propylbenzene-1,3-diol] | 65.8 ± 1.9 mA | 145% |
| CCCc1cc(O)c(-c2c(C)c(C(F)(F)F)cn3ccnc23)c(O)c1 [Compound 16, 2-(6-Trifluoromethyl-7-methylimidazo[1,2-a]pyridin-8-yl)-5-propylbenzene-1,3-diol] | <33.0 mA | <35% |
| CCCc1cc(O)c(-c2c(Cl)ccn3ccnc23)c(O)c1 [Compound 6, 2-(7-Chloroimidazo[1,2-a]pyridin-8-yl)-5-propylbenzene-1,3-diol] | 49.9 ± 1.9 mA | 70% |
| CCCc1cc(O)c(-c2c(C)c(C3CC3)cn3ccnc23)c(O)c1 [Compound 23, 2-(6-Cyclopropyl-7-methylimidazo[1,2-a]pyridin-8-yl)-5-propylbenzene-1,3-diol] | <33.0 mA | <52% |
| CCCCCc1cc(O)c(-c2c(C)c(Cl)cn3ccnc23)c(O)c1 [Compound 17, 2-(6-Chloro-7-methylimidazo[1,2-a]pyridin-8-yl)-5-pentylbenzene-1,3-diol] | 80.9 ± 10.8 mA | 231% |
| CCC(C)(C)c1cc(O)c(-c2c(C)c(Cl)cn3ccnc23)c(O)c1 [Compound 20, 2-(6-Chloro-7-methylimidazo[1,2-a]pyridin-8-yl)-5-(tert-pentyl)benzene-1,3-diol] | 40.6 ± 1.1 mA | 59% |
| Cc1ccn2ccnc2c1-c1c(O)cccc1O [Compound 14, 2-(7-Methylimidazo[1,2-a]pyridin-8-yl)benzene-1,3-diol] | <33.0 mA | <52% |
| Cc1ccn2ccnc2c1-c1c(O)cc(C2CCCC2)cc1O [Compound 22, 5-Cyclopentyl-2-(7-methylimidazo[1,2-a]pyridin-8-yl)benzene-1,3-diol] | 57.3 ± 1.9 mA | 124% |
| CCCc1cc(O)c(-c2c(C)ccn3cc(C(F)(F)F)nc23)c(O)c1 [Compound 15, 2-(2-Trifluoromethyl-7-methylimidazo[1,2-a]pyridin-8-yl)-5-propylbenzene-1,3-diol] | 35.3 ± 1.1 mA | 62% |
| CCCc1cc(O)c(-c2c(C)ccn3c(Cl)cnc23)c(O)c1 [Compound 10, 2-(3-Chloro-7-methylimidazo[1,2-a]pyridin-8-yl)-5-propylbenzene-1,3-diol] | <33.0 ± 0.0 mA | <29% |
| CCCc1cc(O)c(-c2c(C)ccn3cc(C)nc23)c(O)c1 [Compound 3, 2-(2,7-Dimethylimidazo[1,2-a]pyridin-8-yl)-5-propylbenzene-1,3-diol] | 35.3 ± 1.1 mA | 32% |
| CCCc1cc(O)c(-c2c(C)ccn3c(C)cnc23)c(O)c1 [Compound 9, 2-(3,7-Dimethylimidazo[1,2-a]pyridin-8-yl)-5-propylbenzene-1,3-diol] | 58.6 ± 1.6 mA | 152% |
| CCCc1cc(O)c(-c2c(C)c(C)cn3ccnc23)c(O)c1 [Compound 7, 2-(6,7-Dimethylimidazo[1,2-a]pyridin-8-yl)-5-propylbenzene-1,3-diol] | 53.5 ± 1.1 mA | 100% |

Same assay, conditions: 50 mg/kg p.o., 30 min post dose

| SMILES | CC50 +/− SEM | Change from vehicle (CC50) |
| --- | --- | --- |
| Cc1c(Cl)cn2ccnc2c1-c1c(O)cc(Cl)cc1O [Compound 19, 5-Chloro-2-(6-chloro-7-methylimidazo[1,2-a]pyridin-8-yl)benzene-1,3-diol] | 57.3 ± 1.9 mA | 86% |
| CCCc1cc(O)c(-c2c(C3CC3)ccn3ccnc23)c(O)c1 [Compound 18, 2-(7-Cyclopropylimidazo[1,2-a]pyridin-8-yl)-5-propylbenzene-1,3-diol] | 49.9 ± 1.9 mA | 86% |
| Cc1c(F)cn2ccnc2c1-c1c(O)cc(CCC(F)(F)F)cc1O [Compound 24, 2-(6-Fluoro-7-methylimidazo[1,2-a]pyridin-8-yl)-5-(3,3,3-trifluoropropyl)benzene-1,3-diol] | >131.0 mA | >424% |
